Experimental data as given in ChEMBL document CHEMBL1944557 (Bioorg Med Chem, 2012).

Tests used:
[1] = target: T1, 5-hydroxytryptamine receptor 2C (Homo sapiens, UniProt P28335); assay: Binding affinity at 5-HT2C receptor by radioligand displacement assay
T1 sequence (P28335 whole entry): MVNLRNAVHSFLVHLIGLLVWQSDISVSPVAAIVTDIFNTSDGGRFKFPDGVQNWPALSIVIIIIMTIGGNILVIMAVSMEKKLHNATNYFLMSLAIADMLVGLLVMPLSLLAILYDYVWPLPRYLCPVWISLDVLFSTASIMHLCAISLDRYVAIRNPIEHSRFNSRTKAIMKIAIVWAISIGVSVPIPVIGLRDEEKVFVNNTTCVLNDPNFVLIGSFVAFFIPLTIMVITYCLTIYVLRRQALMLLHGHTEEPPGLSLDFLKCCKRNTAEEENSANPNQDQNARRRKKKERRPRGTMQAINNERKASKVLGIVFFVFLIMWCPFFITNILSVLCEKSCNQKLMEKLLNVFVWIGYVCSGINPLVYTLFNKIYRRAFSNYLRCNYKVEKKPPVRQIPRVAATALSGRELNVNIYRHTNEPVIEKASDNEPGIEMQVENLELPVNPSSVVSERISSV

[2] = target: 5-hydroxytryptamine receptor 2A (Homo sapiens, UniProt P28223); assay: Binding affinity at 5-HT2A receptor by radioligand displacement assay
Histamine H1 receptor = Histamine H1 receptor (Homo sapiens, UniProt P35367); assay: Displacement of [3H]-Pyrilamine from human histamine H1 receptor by liquid scintillation counter
D(3) dopamine receptor = D(3) dopamine receptor (Homo sapiens, UniProt P35462); assay: Displacement of [3H]-N-methylspiperone from dopamine D3 receptor expressed in […] MES-23.5
D(4) dopamine receptor = target: T2, D(4) dopamine receptor (Rattus norvegicus, UniProt P30729); assay: Displacement of [3H]-N-methylspiperone from rat dopamine D4 receptor
T2 sequence (P30729 whole entry): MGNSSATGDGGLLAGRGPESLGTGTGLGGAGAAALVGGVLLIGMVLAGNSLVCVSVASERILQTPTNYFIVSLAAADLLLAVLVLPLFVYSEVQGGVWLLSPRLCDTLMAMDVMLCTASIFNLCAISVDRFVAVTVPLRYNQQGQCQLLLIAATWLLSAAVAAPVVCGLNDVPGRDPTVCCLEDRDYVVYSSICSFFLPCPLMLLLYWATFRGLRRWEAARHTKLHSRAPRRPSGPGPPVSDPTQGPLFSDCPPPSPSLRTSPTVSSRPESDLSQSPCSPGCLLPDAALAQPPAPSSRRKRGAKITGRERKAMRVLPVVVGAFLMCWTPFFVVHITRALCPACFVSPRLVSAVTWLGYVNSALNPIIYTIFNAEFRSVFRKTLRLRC

D(2) dopamine receptor = D(2) dopamine receptor (Homo sapiens, UniProt P14416); assay: Displacement of [3H]-N-methylspiperone from dopamine D2 receptor expressed in […] MES-23.5 cells; assay type: cell-based
[3] = target: T3, 5-hydroxytryptamine receptor 1A (Homo sapiens, UniProt P08908); assay: Displacement of [3H]8-OH-DPAT from 5-HT1A receptor expressed in CHO cells after 20 mins by liquid scintillation counting; assay type: cell-based
T3 sequence (P08908 whole entry): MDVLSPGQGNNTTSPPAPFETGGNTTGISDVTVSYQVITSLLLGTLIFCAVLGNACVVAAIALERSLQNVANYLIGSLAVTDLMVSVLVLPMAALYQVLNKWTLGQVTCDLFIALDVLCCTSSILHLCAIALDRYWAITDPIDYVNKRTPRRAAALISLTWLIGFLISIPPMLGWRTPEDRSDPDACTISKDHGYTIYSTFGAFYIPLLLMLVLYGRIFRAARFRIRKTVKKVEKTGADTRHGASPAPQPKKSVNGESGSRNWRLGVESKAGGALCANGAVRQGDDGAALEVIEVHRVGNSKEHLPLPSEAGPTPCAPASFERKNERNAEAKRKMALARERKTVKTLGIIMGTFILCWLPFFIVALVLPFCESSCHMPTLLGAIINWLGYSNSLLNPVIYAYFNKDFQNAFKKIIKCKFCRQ

Sequence of D(2) dopamine receptor (P14416 whole entry): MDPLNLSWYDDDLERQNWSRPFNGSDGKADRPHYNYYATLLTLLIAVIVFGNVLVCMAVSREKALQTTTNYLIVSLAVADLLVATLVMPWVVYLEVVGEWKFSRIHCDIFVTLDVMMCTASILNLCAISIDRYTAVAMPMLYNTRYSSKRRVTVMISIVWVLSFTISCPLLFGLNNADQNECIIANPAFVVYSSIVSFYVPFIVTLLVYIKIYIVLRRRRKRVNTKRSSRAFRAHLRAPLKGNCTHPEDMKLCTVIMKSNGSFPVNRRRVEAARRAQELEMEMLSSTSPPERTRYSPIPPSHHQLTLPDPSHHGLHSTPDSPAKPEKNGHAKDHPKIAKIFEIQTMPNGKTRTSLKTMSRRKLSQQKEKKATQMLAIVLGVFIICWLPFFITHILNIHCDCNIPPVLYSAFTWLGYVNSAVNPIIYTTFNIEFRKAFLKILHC
Sequence of D(3) dopamine receptor (P35462 whole entry): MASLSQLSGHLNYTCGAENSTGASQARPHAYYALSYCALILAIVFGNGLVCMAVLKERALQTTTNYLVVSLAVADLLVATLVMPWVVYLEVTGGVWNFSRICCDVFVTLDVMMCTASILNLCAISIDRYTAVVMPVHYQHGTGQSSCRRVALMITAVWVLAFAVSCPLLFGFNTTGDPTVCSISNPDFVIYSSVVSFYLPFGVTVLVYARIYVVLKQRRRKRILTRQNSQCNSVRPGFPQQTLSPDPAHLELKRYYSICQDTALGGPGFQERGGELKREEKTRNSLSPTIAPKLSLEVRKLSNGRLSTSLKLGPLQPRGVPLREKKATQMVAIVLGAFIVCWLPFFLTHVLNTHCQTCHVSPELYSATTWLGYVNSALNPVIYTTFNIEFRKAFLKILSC
Sequence of 5-hydroxytryptamine receptor 2A (P28223 whole entry): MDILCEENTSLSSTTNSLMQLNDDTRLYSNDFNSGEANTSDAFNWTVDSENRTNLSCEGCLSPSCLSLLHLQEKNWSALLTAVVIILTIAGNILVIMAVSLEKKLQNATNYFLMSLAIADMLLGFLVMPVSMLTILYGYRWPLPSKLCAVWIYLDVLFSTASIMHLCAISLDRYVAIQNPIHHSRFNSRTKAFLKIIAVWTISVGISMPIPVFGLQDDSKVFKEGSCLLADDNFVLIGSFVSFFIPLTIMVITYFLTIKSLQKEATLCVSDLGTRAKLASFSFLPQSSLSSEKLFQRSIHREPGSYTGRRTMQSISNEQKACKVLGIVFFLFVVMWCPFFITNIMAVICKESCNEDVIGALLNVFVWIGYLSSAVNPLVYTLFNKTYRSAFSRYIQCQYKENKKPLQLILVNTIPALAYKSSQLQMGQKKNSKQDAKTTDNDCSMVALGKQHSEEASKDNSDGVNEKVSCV
Sequence of Histamine H1 receptor (P35367 whole entry): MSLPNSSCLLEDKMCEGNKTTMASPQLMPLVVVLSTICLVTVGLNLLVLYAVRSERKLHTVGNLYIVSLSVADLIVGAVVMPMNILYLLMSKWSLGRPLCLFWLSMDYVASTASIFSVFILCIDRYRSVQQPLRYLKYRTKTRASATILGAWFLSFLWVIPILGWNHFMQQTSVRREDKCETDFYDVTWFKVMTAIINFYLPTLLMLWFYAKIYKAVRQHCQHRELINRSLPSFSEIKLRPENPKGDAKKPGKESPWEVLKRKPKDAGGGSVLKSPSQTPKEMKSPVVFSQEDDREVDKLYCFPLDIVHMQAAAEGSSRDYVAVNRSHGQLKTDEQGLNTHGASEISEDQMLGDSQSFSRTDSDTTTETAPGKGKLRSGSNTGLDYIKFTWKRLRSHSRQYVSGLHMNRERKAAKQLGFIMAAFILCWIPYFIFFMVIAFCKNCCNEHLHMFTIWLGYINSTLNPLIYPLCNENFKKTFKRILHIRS

| SMILES | Ki ([2]; read-out: Ki) | Ki ([1]; read-out: Ki) | Ki (D(3) dopamine receptor) | Ki (D(4) dopamine receptor) | Ki (D(2) dopamine receptor; read-out: Ki) | Ki (Histamine H1 receptor) | Ki ([3]; cho) | Ki [1] | Ki (Histamine H1 receptor; read-out: Ki) | Ki ([3]; read-out: Ki) | Ki (D(2) dopamine receptor) | Ki [2] |
| --- | --- | --- | --- | --- | --- | --- | --- | --- | --- | --- | --- | --- |
| OC1(c2ccc(Cl)cc2)C[C@H]2CC[C@@H](C1)N2CCCOc1ccc(F)cc1 (stereo partly specified) |  |  |  |  |  |  |  | Not Active |  |  |  |  |
| Fc1ccc(SCCCN2CCCN(c3ccc(Cl)cc3)CC2)cc1 | 163 nM | 2530 nM |  |  |  |  |  |  | 800 nM |  |  |  |
| Clc1ccc(N2CCCN(CCCCc3nc4ccccc4s3)CC2)cc1 | 159 nM | 1420 nM | 152 nM | 28.6 nM | 259 nM |  |  |  | 61 nM | 263 nM |  |  |
| Clc1ccc(N2CCCN(CCCc3nc4ccccc4s3)CC2)cc1 | 696 nM |  | 863 nM | 431 nM |  |  |  |  | 665 nM | 216 nM | Not Active |  |
| Clc1ccc(N2CCCN(Cc3nc4ccccc4s3)CC2)cc1 |  |  |  |  |  | Not Active | Not Active | Not Active |  |  |  | Not Active |
| O=C(CCCCN1CCCN(c2ccc(Cl)cc2)CC1)c1nc2ccccc2s1 | 1000 nM | 5920 nM | 1050 nM | 1210 nM | 1980 nM |  |  |  | 129 nM | 495 nM |  |  |
| O=C(CCCCN1[C@@H]2CC[C@H]1CC(O)(c1ccc(Cl)cc1)C2)c1nc2ccccc2s1 (stereo partly specified) |  |  |  |  |  |  | Not Active | Not Active |  |  |  | Not Active |

Continued, in another order:

| Ki ([2]; read-out: Ki) | Ki ([1]; read-out: Ki) | Ki (D(3) dopamine receptor) | Ki (D(4) dopamine receptor) | Ki (D(2) dopamine receptor; read-out: Ki) | Ki (Histamine H1 receptor) | Ki ([3]; cho) | SMILES | Ki [1] | Ki (Histamine H1 receptor; read-out: Ki) | Ki ([3]; read-out: Ki) | Ki (D(2) dopamine receptor) | Ki [2] |
| --- | --- | --- | --- | --- | --- | --- | --- | --- | --- | --- | --- | --- |
| 567 nM | > 10000 nM |  |  |  |  |  | Fc1ccc(OCCCN2CCCN(c3ccc(Cl)cc3)CC2)cc1 |  | 509 nM |  |  |  |
| 510 nM | 4100 nM | 3040 nM | 123 nM | 139 nM |  |  | Fc1ccc(CCCCN2CCCN(c3ccc(Cl)cc3)CC2)cc1 |  | 1250 nM |  |  |  |
| 1040 nM |  | 777 nM | 126 nM |  |  | Not Active | O=C(CCCN1CCCN(c2ccc(Cl)cc2)CC1)c1nc2ccccc2s1 | Not Active |  |  | Not Active |  |
